In ChEMBL document CHEMBL4004803, “Syntheses and antibacterial activity of soluble 9-bromo substituted indolizinoquinoline-5,12-dione derivatives” (Eur J Med Chem, 2017):

Key:
Assay type in all cases: functional
Staphylococcus aureus [1] = assay: Antibacterial activity against methicillin-resistant Staphylococcus aureus 110834 clinical isolate after 20 to 24 hrs by two-fold microdilution method
Staphylococcus aureus [2] = assay: Antibacterial activity against methicillin-resistant Staphylococcus aureus 829034 clinical isolate after 20 to 24 hrs by two-fold microdilution method
Staphylococcus aureus [3] = assay: Antibacterial activity against methicillin-resistant Staphylococcus aureus 625032 clinical isolate after 20 to 24 hrs by two-fold microdilution method
Staphylococcus aureus [4] = assay: Antibacterial activity against methicillin-resistant Staphylococcus aureus 118038 clinical isolate after 20 to 24 hrs by two-fold microdilution method
Staphylococcus aureus [5] = assay: Antibacterial activity against methicillin-resistant Staphylococcus aureus 11703 clinical isolate after 20 to 24 hrs by two-fold microdilution method
Staphylococcus aureus [6] = assay: Antibacterial activity against methicillin-resistant Staphylococcus aureus 919205 clinical isolate after 20 to 24 hrs by two-fold microdilution method
Staphylococcus aureus [7] = assay: Antibacterial activity against methicillin-resistant Staphylococcus aureus 921026 clinical isolate after 20 to 24 hrs by two-fold microdilution method
Staphylococcus aureus [8] = assay: Antibacterial activity against methicillin-resistant Staphylococcus aureus 131215 clinical isolate after 20 to 24 hrs by two-fold microdilution method
Staphylococcus aureus [9] = assay: Antibacterial activity against methicillin-resistant Staphylococcus aureus 1101016 clinical isolate after 20 to 24 hrs by two-fold microdilution method
Staphylococcus aureus [10] = assay: Antibacterial activity against methicillin-resistant Staphylococcus aureus 103054 clinical isolate after 20 to 24 hrs by two-fold microdilution method
Staphylococcus aureus [11] = assay: Antibacterial activity against methicillin-resistant Staphylococcus aureus 20339 clinical isolate after 20 to 24 hrs by two-fold microdilution method
Staphylococcus aureus [12] = assay: Antibacterial activity against methicillin-resistant Staphylococcus aureus 110325 clinical isolate after 20 to 24 hrs by two-fold microdilution method
Staphylococcus aureus [13] = assay: Antibacterial activity against methicillin-resistant Staphylococcus aureus 1111047-1 clinical isolate after 20 to 24 hrs by two-fold microdilution method
Staphylococcus aureus [14] = assay: Antibacterial activity against methicillin-resistant Staphylococcus aureus 121969 clinical isolate after 20 to 24 hrs by two-fold microdilution method
Staphylococcus aureus [15] = assay: Antibacterial activity against methicillin-resistant Staphylococcus aureus 1012039 clinical isolate after 20 to 24 hrs by two-fold microdilution method
Staphylococcus aureus [16] = assay: Antibacterial activity against methicillin-resistant Staphylococcus aureus 215073 clinical isolate after 20 to 24 hrs by two-fold microdilution method
Staphylococcus aureus [17] = assay: Antibacterial activity against methicillin-resistant Staphylococcus aureus 1128040 clinical isolate after 20 to 24 hrs by two-fold microdilution method
Staphylococcus aureus [18] = assay: Antibacterial activity against methicillin-resistant Staphylococcus aureus 1216052 clinical isolate after 20 to 24 hrs by two-fold microdilution method
Staphylococcus aureus [19] = assay: Antibacterial activity against methicillin-resistant Staphylococcus aureus 414244 clinical isolate after 20 to 24 hrs by two-fold microdilution method
Staphylococcus aureus [20] = assay: Antibacterial activity against methicillin-resistant Staphylococcus aureus 20534 clinical isolate after 20 to 24 hrs by two-fold microdilution method
Staphylococcus aureus [21] = assay: Antibacterial activity against methicillin-resistant Staphylococcus aureus 110328-1 clinical isolate after 20 to 24 hrs by two-fold microdilution method
Staphylococcus aureus [22] = assay: Antibacterial activity against methicillin-resistant Staphylococcus aureus 19950 clinical isolate after 20 to 24 hrs by two-fold microdilution method
Staphylococcus aureus [23] = assay: Antibacterial activity against methicillin-resistant Staphylococcus aureus 531220 clinical isolate after 20 to 24 hrs by two-fold microdilution method
Staphylococcus aureus [24] = assay: Antibacterial activity against methicillin-resistant Staphylococcus aureus 822030 clinical isolate after 20 to 24 hrs by two-fold microdilution method
Staphylococcus aureus [25] = assay: Antibacterial activity against methicillin-resistant Staphylococcus aureus 1113041 clinical isolate after 20 to 24 hrs by two-fold microdilution method
Staphylococcus aureus [26] = assay: Antibacterial activity against methicillin-resistant Staphylococcus aureus 1029025 clinical isolate after 20 to 24 hrs by two-fold microdilution method
Streptococcus pyogenes = assay: Antibacterial activity against Streptococcus pyogenes ATCC 19615 after 20 to 24 hrs by two-fold microdilution method
Staphylococcus aureus [27] = assay: Antibacterial activity against methicillin-resistant Staphylococcus aureus 1212221 clinical isolate after 20 to 24 hrs by two-fold microdilution method
Staphylococcus aureus [28] = assay: Antibacterial activity against methicillin-resistant Staphylococcus aureus 20106-2 clinical isolate after 20 to 24 hrs by two-fold microdilution method
Staphylococcus aureus [29] = assay: Antibacterial activity against methicillin-resistant Staphylococcus aureus 1019240 clinical isolate after 20 to 24 hrs by two-fold microdilution method
Staphylococcus aureus [30] = assay: Antibacterial activity against methicillin-resistant Staphylococcus aureus 305026 clinical isolate after 20 to 24 hrs by two-fold microdilution method
Staphylococcus aureus [31] = assay: Antibacterial activity against methicillin-resistant Staphylococcus aureus 216054 clinical isolate after 20 to 24 hrs by two-fold microdilution method
Staphylococcus aureus [32] = assay: Antibacterial activity against methicillin-resistant Staphylococcus aureus 110910-2 clinical isolate after 20 to 24 hrs by two-fold microdilution method
Staphylococcus aureus [33] = assay: Antibacterial activity against methicillin-resistant Staphylococcus aureus 30116-1 clinical isolate after 20 to 24 hrs by two-fold microdilution method
Staphylococcus aureus [34] = assay: Antibacterial activity against methicillin-resistant Staphylococcus aureus 519238 clinical isolate after 20 to 24 hrs by two-fold microdilution method
Staphylococcus aureus [35] = assay: Antibacterial activity against methicillin-resistant Staphylococcus aureus 11819 clinical isolate after 20 to 24 hrs by two-fold microdilution method
Staphylococcus aureus [36] = assay: Antibacterial activity against methicillin-resistant Staphylococcus aureus 1215028 clinical isolate after 20 to 24 hrs by two-fold microdilution method
Staphylococcus aureus [37] = assay: Antibacterial activity against methicillin-resistant Staphylococcus aureus 109016 clinical isolate after 20 to 24 hrs by two-fold microdilution method
Streptococcus pneumoniae = assay: Antibacterial activity against Streptococcus pneumoniae ATCC 6305 after 20 to 24 hrs by two-fold microdilution method
Staphylococcus aureus [38] = assay: Antibacterial activity against methicillin-resistant Staphylococcus aureus 304243 clinical isolate after 20 to 24 hrs by two-fold microdilution method
Staphylococcus aureus [39] = assay: Antibacterial activity against methicillin-resistant Staphylococcus aureus 219236 clinical isolate after 20 to 24 hrs by two-fold microdilution method
Staphylococcus aureus [40] = assay: Antibacterial activity against methicillin-resistant Staphylococcus aureus ATCC 43300 after 20 to 24 hrs by two-fold microdilution method
Staphylococcus aureus [41] = assay: Antibacterial activity against methicillin-resistant Staphylococcus aureus 202045 clinical isolate after 20 to 24 hrs by two-fold microdilution method
Staphylococcus aureus [42] = assay: Antibacterial activity against methicillin-resistant Staphylococcus aureus 121026 clinical isolate after 20 to 24 hrs by two-fold microdilution method
Staphylococcus aureus [43] = assay: Antibacterial activity against methicillin-resistant Staphylococcus aureus 102849 clinical isolate after 20 to 24 hrs by two-fold microdilution method
Staphylococcus aureus [44] = assay: Antibacterial activity against methicillin-resistant Staphylococcus aureus 110432 clinical isolate after 20 to 24 hrs by two-fold microdilution method
Staphylococcus aureus [45] = assay: Antibacterial activity against methicillin-resistant Staphylococcus aureus 1211026 clinical isolate after 20 to 24 hrs by two-fold microdilution method

Measured: MIC

O=C1c2cccnc2C(=O)c2c1c(C(=O)OCCCCCN1CCOCC1)c1ccc(Br)cn21
0.063 µg/mL: Staphylococcus aureus [3] | Staphylococcus aureus [5] | Staphylococcus aureus [11] | Staphylococcus aureus [13] | Staphylococcus aureus [14] | Staphylococcus aureus [19] | Staphylococcus aureus [30] | Staphylococcus aureus [31] | Staphylococcus aureus [43]
8 µg/mL: Streptococcus pyogenes
0.031 µg/mL: Staphylococcus aureus [1] | Staphylococcus aureus [9] | Staphylococcus aureus [21] | Staphylococcus aureus [22] | Staphylococcus aureus [24] | Staphylococcus aureus [26] | Staphylococcus aureus [27] | Staphylococcus aureus [29] | Staphylococcus aureus [38] | Staphylococcus aureus [39] | Staphylococcus aureus [40]
0.016 µg/mL: Staphylococcus aureus [6] | Staphylococcus aureus [8] | Staphylococcus aureus [41]
2 µg/mL: Streptococcus pneumoniae
0.125 µg/mL: Staphylococcus aureus [2] | Staphylococcus aureus [15] | Staphylococcus aureus [20] | Staphylococcus aureus [28] | Staphylococcus aureus [34]
16 µg/mL: Staphylococcus aureus [18]
≤ 0.0078 µg/mL: all other assays above

O=C1c2cccnc2C(=O)c2c1c(C(=O)OCCCCN1CCOCC1)c1ccc(Br)cn21
0.125 µg/mL: Staphylococcus aureus [8] | Staphylococcus aureus [27] | Staphylococcus aureus [30] | Staphylococcus aureus [35] | Staphylococcus aureus [38] | Staphylococcus aureus [45]
8 µg/mL: Staphylococcus aureus [18]
0.063 µg/mL: Staphylococcus aureus [16] | Staphylococcus aureus [31] | Staphylococcus aureus [39] | Staphylococcus aureus [40]
1 µg/mL: Staphylococcus aureus [6] | Staphylococcus aureus [13] | Staphylococcus aureus [14] | Staphylococcus aureus [19] | Staphylococcus aureus [20] | Staphylococcus aureus [22] | Staphylococcus aureus [29]
4 µg/mL: Streptococcus pyogenes | Streptococcus pneumoniae
≤ 0.0078 µg/mL: Staphylococcus aureus [21]
0.25 µg/mL: Staphylococcus aureus [1] | Staphylococcus aureus [9] | Staphylococcus aureus [12] | Staphylococcus aureus [17] | Staphylococcus aureus [23] | Staphylococcus aureus [41] | Staphylococcus aureus [42] | Staphylococcus aureus [44]
0.5 µg/mL: all other assays above

O=C1c2cccnc2C(=O)c2c1c(C(=O)OCCCCCCN1CCOCC1)c1ccc(Br)cn21
0.0078 µg/mL: Staphylococcus aureus [8]
0.031 µg/mL: Staphylococcus aureus [38]
16 µg/mL: Staphylococcus aureus [18]
2 µg/mL: Streptococcus pyogenes
0.5 µg/mL: Streptococcus pneumoniae
≤ 0.0078 µg/mL: all other assays above
